Laboratory results taken from US20250295608A1, “PHARMACEUTICAL COMPOSITIONS AND METHODS FOR TREATING OSTEOARTHRITIS” (INSIGNIA PHARMACEUTICALS, LLC, priority 2024, published 2025).
“Also recorded” adds a separate entry of the source.

Experiments:
MMP13 = MMP13 relative expression in osteoarthritic chondrocytes (qRT-PCR); type: cell-based, human; details: for Observed Relative expression of MMP13: 0.1% HA, 0.1 uM Dex
[1] = tested on: IL-1β-induced PGE2 release; assay: IL-1β-induced PGE2 release from normal human chondrocytes (competitive EIA); type: cell-based; details: for inhibition at 10 µM: Homo sapiens, Chondrocyte
SOX9 = SOX9 relative expression in osteoarthritic chondrocytes (qRT-PCR, normalized to GAPDH); type: cell-based, human
[2] = tested on: type II collagen (Col2a1); assay: Col2a1 relative expression in osteoarthritic chondrocytes (qRT-PCR); type: cell-based, human
SOX9 versus RUNX2 = assay: Relative expression of SOX9 versus RUNX2 in osteoarthritic chondrocytes; type: cell-based, human; details: for expression of SOX9 compared to RUNX2: passage 5 human osteoarthritic chondrocytes, 27 days
Aggrecan (ACAN) = assay: ACAN relative expression in osteoarthritic chondrocytes (qRT-PCR); type: cell-based; details: passage 5 human osteoarthritic chondrocytes, 27 days
Source text: Delta-delta relative gene expression was employed to determine ACAN regulation in the 27-day samples referenced in Examples 15 and 16.

type I collagen (Col1a1) = assay: Col1a1 relative expression in osteoarthritic chondrocytes (qRT-PCR); type: cell-based; details: passage 5 human osteoarthritic chondrocytes, 27 days
Protocol: To evaluate the biological ramifications of the SOX9 to RUNX2 regulation mentioned above, delta-delta relative gene expression was assessed against medium controls, with normalization to GAPDH for both Col2a1 and Col1a1 in the samples tested with reference to Example 15. […] Moreover, treatment with 100 mM Lac increased collagen expression (49.88+4.31 and 1.63+0.20 for Col2a1 and Col1a1, respectively; FIGS. 51 and 52).

Elastin (ELN) = assay: ELN mRNA in normal human dermal fibroblasts (NHDF), qRT-PCR; type: cell-based; details: IL-1β 0.1 ng/ml, 24 hours; 100 mM Lac, 0.1 mM Dxp; n=3
Protocol: (§1) After 24 hours, total mRNA was isolated and delta-delta Cp relative expression was calculated versus untreated medium controls, normalized to the housekeeping gene, GAPDH. Statistical analysis was then conducted via t-test.

[3] = tested on: matrix metalloproteinase 3 (MMP3); assay: MMP3 mRNA in NHDF, qRT-PCR; type: cell-based, human; details: IL-1β 0.1 ng/ml, 24 hours; 100 mM Lac, 0.1 mM Dxp
Protocol: as §1

[4] = tested on: matrix metalloproteinase 12 (MMP12); assay: MMP12 mRNA in NHDF, qRT-PCR; type: cell-based, human; details: IL-1β 0.1 ng/ml, 24 hours; 100 mM Lac, 0.1 mM Dxp
Protocol: as §1

RUNX2 = RUNX2 relative expression in osteoarthritic chondrocytes (qRT-PCR)
Protocol: Examples of the present disclosure were conducted to evaluate the expression of key chondrocyte markers in the presence of test compounds. High passage and low passage chondrocytes were prepared where in both cases, primary human chondrocytes were cultured as confluent monolayers on tissue culture plates. For the high passage chondrocytes, fibroblast-like human osteoarthritic chondrocytes were used. The cells were cultured for an extended period before investigation (passage 13).
When indicated, the cells were also cultured with TGF-β3 at a final concentration of 10 ng/ml.
The data is presented as GAPDH normalized relative expression of key markers versus unstimulated controls.
The culture mediums were replenished weekly by withdrawing about half of the volume and replacing them with warmed mediums supplemented as needed. After 27 days, total RNA was extracted and qRT-PCR was carried out with primer sets for SOX9, RUNX2, and GAPDH.

IL-1β release = assay: Two-hit (LPS then ATP) inflammasome activation, IL-1β release from THP1 macrophages; type: cell-based, human; details: with 25 nanomolar Dex
Source text: A two-hit model of inflammasome activation in THP1 macrophages was developed that entails an overnight stimulation with LPS followed by a second proinflammatory stimulus, extracellular ATP, which drives inflammasome assembly and subsequent IL-1β release from the cells into the media.
In three independent experiments, THP1 macrophages stimulated by the two-hit model of inflammasome activation released IL-1β in control conditions.

PGE2 = assay: IL-1β-induced PGE2 in osteoarthritic human synoviocytes; type: cell-based; details: for PGE2 release: 200 nanomolar DA or 500 ng/mL IL-1RA, pretreatment 5 min, 1 h or 2 h, IL-1β 1 ng/mL for 10 minutes or 1 hour
Protocol: FIG. 31A depicts early concentrations of PGE2 present in primary […] of varying concentrations of Dex and DA in view of controls. The concentrations in FIG. 31A were measured at hour three.
FIG. 31B is a bar graph depicting PGE2 release from human osteoarthritic synoviocytes treated with media, 200 nanomolar DA, or 500 nanograms/milliliter of IL-1 Receptor Antagonist (IL-1RA) for the specified pretreatment times at the bottom of each panel (5 minutes, 1 hour, or 2 hours, and then stimulated with 1 nanogram/milliliter IL-1β for either 10 minutes or 1 hour, as indicated. PGE2 in picograms/milliliter was released at detectable levels in each of the media treated samples, including the short 10-minute IL-1β stimulation conditions, implicating low level activation caused by a change of media. The media controls within each panel of treatments released increased PGE2 compared to DA treated cells. Cells were also treated with IL-IRA which inhibits IL-1β by binding […], effectively blocking IL-1β signaling. […] DA is able to incorporate into the cell membrane_and the immediate inhibition of signaling may reflect the ability of DA to change the biophysical properties of the cell membrane.
FIG. 33 illustrates two bar graphs that depict the concentrations of PGE2 inside of the cell versus PGE2 that was secreted into the cell culture media. Specifically, the bar graph labeled “Intracellular” illustrates the concentrations of PGE2 inside of the cell and the bar graph labeled “Supernatent” illustrates the concentration of PGE2 that was secreted into the cell culture media. Synoviocytes were stimulated with IL-1β for 6 hours and then cell culture media harvested separately along with collecting cell lysates. […] Specifically, treating osteoarthritic HSF cells with 1 ng/ml IL-1β final concentration causes the cells to secrete large amounts of PGE2 into the cell culture media. […] To test this, the PGE2 concentrations inside of the cells and in the cell culture media were measured to compare them directly to each other. […] Thus, without being bound by theory, it is believed that DA binds to or interacts with MRP4 proteins and prevents MRP4 from successfully transporting PGE2.

prostaglandin D2 (PGD2) = assay: IL-1β-induced PGD2 release in osteoarthritic human synoviocytes; type: cell-based; details: IL-1β 0.5 ng/mL
[5] = tested on: interleukin-18, tumor necrosis factor, interleukin-8, and interleukin-6; assay: Other cytokines in two-hit stimulated THP1 macrophages; type: cell-based, human; details: dose dependent; data not shown
prostaglandin I2 (PGI2) = assay: PGI2 in IL-1β-stimulated osteoarthritic synoviocytes; type: cell-based, human; details: IL-1β 1 ng/ml, 24 hours
Protocol: FIG. 25 is a bar graph that depicts the concentration of prostaglandin I2 (PGI2) present in primary human synoviocytes from patients with osteoarthritis that were stimulated with 1 ng/ml final concentration of IL-1β for 24 hours in the presence of varying concentrations of DA and Dex in view of controls. PGI2 concentration response mirrored PGE2 concentrations after DA treatment. […] It is noted that prostaglandin H2 (PGH2) was also tested and was not detected in either cell culture media or from cell lysates. Without being bound by theory, it is believed that PGH2 is an intermediate and is (near) immediately converted into downstream prostaglandins and therefore levels of PGH2 are not detectable.

Cyclooxygenase-2 (COX-2) = target: T1, Cyclooxygenase-2 (COX-2) (Homo sapiens, UniProt P35354); assay: COX-2 inhibitor screen; type: biochemical; details: any of the concentrations tested
T1 sequence (P35354 18-604): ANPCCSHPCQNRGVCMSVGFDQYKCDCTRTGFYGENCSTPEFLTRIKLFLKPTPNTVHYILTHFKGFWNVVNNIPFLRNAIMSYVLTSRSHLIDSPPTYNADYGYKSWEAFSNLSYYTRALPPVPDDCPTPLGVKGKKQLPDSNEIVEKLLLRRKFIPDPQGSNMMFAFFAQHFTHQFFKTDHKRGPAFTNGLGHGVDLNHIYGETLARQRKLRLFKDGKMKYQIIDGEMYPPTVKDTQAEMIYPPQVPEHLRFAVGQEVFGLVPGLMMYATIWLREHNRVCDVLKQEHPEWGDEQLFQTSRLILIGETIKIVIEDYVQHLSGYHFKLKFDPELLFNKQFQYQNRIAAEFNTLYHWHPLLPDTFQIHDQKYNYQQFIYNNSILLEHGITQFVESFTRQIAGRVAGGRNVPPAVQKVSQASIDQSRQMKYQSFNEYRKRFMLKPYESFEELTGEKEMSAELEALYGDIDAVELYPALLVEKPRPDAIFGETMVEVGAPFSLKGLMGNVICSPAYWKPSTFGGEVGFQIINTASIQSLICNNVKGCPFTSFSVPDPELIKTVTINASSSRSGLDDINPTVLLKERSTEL
Source text: Celecoxib (Celebrex) was used as a positive control for COX-2.

arachidonic acid (AA) = assay: Arachidonic acid in IL-1β-stimulated osteoarthritic synoviocytes; type: cell-based, human; details: IL-1β 1 ng/mL, 3 hours; cell lysates
Protocol: Early concentrations of arachidonic acid (AA) present in primary human synoviocytes from patients with osteoarthritis that were stimulated with 1 ng/mL final concentration interleukin 1-beta (B) for 3 hours in the presence of varying concentrations of Dex and DA in view of controls are depicted in FIG. 32. The concentrations of AA in FIG. 32 were normalized to total protein content from the cell lysates using bicinchoninic acid (BCA).

[6] = pre-incubation 24 hours, 24-hour harvest, 25 uM Dec, 28 mM Lac, 10 uM LA, singlet
[7] = high passage, dedifferentiated osteoarthritic chondrocytes, TGF-β3, 14 days
[8] = rescue (added after overnight IL-1β activation), 24-hour harvest, 25 uM Dec, 28 mM Lac, 10 uM LA, singlet
[9] = rescue, 96-hour harvest, 25 uM Dec, 28 mM Lac, 10 uM LA, singlet
[10] = 100 millimolar Lac with 10 ng/mL TGF-B3, 14 days, micromass cultures
[11] = 100 millimolar Lac, 14 days, monolayer cultures
[12] = low passage osteoarthritic chondrocytes, 7, 14, 28 days
[13] = passage 5 human osteoarthritic chondrocytes, 27 days

hyaluronic acid [HA]
Observed Relative expression of MMP13 (MMP13; 14-day micromass pellet culture): −1.6 fold
Observed Relative expression of MMP13 (MMP13; 28-day monolayer culture): 1.0 fold

O=C(O)CCCCC1CCSS1 (stereo not drawn) [LA, α-lipoic acid]
inhibition at 10 µM ([1]; 96 h, rescue, 96-hour harvest, 25 uM Dec, 28 mM Lac, 10 uM LA, singlet): 33%
inhibition at 10 µM [1, 6]: -59%
SOX9 expression (SOX9; [7]): increased SOX9 transcription; also recorded: increases SOX9 relative expression

CC(O)C(=O)O (centres unmarked) [Lac, lactate]
inhibition of PGE2 release ([1]; 100 millimolar Lac, 0.5 ng/mL IL-1β, 48 h): complete inhibition
concentration with statistically significant effect, PGE2 release ([1]; IL-1β, 48 h): ≥ 10 millimolar
inhibition of PGE2 release [1, 6]: −139%
inhibition of PGE2 release [1, 8]: 64%
inhibition of PGE2 release [1, 9]: 27%
increase in SOX9 (SOX9; [10]): 9 fold
increase in relative expression of SOX9 (SOX9; [11]): 8 fold
increase in SOX9 transcription (SOX9; high passage osteoarthritic chondrocytes, TGF-B, 14 days, 100 mm LA, 28 mM Lac): 2 fold
SOX9 expression (SOX9; [7]): increased SOX9 transcription; also recorded: increased expression of SOX9
SOX9 expression (SOX9; [12]): temporal increase in SOX9
relative expression of SOX9 versus medium controls (SOX9; passage 5 human osteoarthritic chondrocytes, 27 days, 50 micromolar Dec, 0.1 micromolar Dxp, 100 millimolar Lac): 6.34+2.46 fold
increase in Col2a1 [2, 10]: 88 fold
increase in collagen ([2]; 100 millimolar Lac, 14 days, micromass pellets): 11 fold
increase in relative expression of Col2a1 [2, 11]: 1600 fold
increase in Col2a1 compared to controls ([2]; high passage osteoarthritic chondrocytes, TGF-B, 14 days, 28 mM Lac): 30 fold
relative expression of Col2a1 ([2]; low passage osteoarthritic chondrocytes, day 28): elevated Col2a1 relative expression
relative expression of Col2a1 versus medium controls [2, 13]: 49.88+4.31 fold
ratio of SOX9/RUNX2 (SOX9 versus RUNX2; [12]): temporally increased
expression of SOX9 compared to RUNX2 (SOX9 versus RUNX2): 25.14+12.71
relative expression of ACAN (Aggrecan (ACAN)): 3.81+0.77 fold
relative expression of Col1a1 versus medium controls (type I collagen (Col1a1)): 1.63+0.20 fold
relative expression of ELN (Elastin (ELN)): 0.86+3
relative expression of MMP3 [3]: 1.5 ± 0.8
relative expression of MMP12 [4]: 2.2 ± 0.8
RUNX2 expression (RUNX2; [12]): temporal decrease in RUNX2; also recorded: temporally reduced RUNX2 expression
relative expression of RUNX2 versus medium controls (RUNX2; [13]): −2.51+1.33

CCCCCCCCCC(=O)[O-].[Na+] [decanoate, sodium decanoate]
inhibition of PGE2 release ([1]; added at the same time as IL-1β, 24-hour harvest, 25 uM Dec, singlet): 53%
inhibition of PGE2 release ([1]; added at the same time as IL-1β, 96-hour harvest, 25 uM Dec, singlet): 76%
inhibition of PGE2 release [1, 6]: 41%
inhibition of PGE2 release ([1]; pre-incubation, 96-hour harvest, 25 uM Dec, singlet): 75%
inhibition of PGE2 release [1, 8]: 72%
inhibition of PGE2 release [1, 9]: 57%
expression of SOX9 compared to RUNX2 (SOX9 versus RUNX2): 1.80+0.47
increase in potency of sodium decanoate (IL-1β release): 4.6 ×

IL-1RA: IL-1 Receptor Antagonist, blocks IL-1β signaling [reference compound]
PGE2 release (PGE2): consistently higher than PGE2 levels in DA treated cells

C[C@@H]1C[C@H]2[C@@H]3CCC4=CC(=O)C=C[C@]4(C)[C@@]3(F)[C@@H](O)C[C@]2(C)[C@@]1(O)C(=O)CO [Dex, dexamethasone, reference compound]
concentration with statistical significance, PGE2 release ([1]; IL-1β, 48 h): 100 picomolar

CCCCCCCCCC(=O)O [DA, decanoic acid]
SOX9 expression (SOX9; [7]): increased SOX9 transcription
PGE2 release (PGE2): blocked the low-level activation seen in media controls
concentrations inhibiting PGE2 release (PGE2; IL-1β 0.5 ng/mL): above 1 micromolar
PGE2 inside of the cell (PGE2; IL-1β 1 ng/ml, 6 hours, cell lysates): causes PGE2 to build up intracellularly
PGE2 secreted into the cell culture media (PGE2; IL-1β 1 ng/ml, 6 hours, supernatant): causes PGE2 secretion to be abrogated
increase in potency of DA (PGE2; by 100 picomolar Dex): 2.2 ×
concentrations inhibiting PGD2 release (prostaglandin D2 (PGD2)): above 1 micromolar
expression of interleukin-18, tumor necrosis factor, interleukin-8, and interleukin-6 [5]: reduced the expression
secreted PGI2 levels (prostaglandin I2 (PGI2)): decreases secreted PGI2 levels
inhibition of COX-2 activity (Cyclooxygenase-2 (COX-2)): no observed inhibition
concentration of AA normalized to total protein (arachidonic acid (AA)): lower concentrations of AA than the Dex samples; also recorded: lower than that of the control with IL-1β

CCCCCCCCCC(=O)O [DA/Dec]
SOX9 expression (SOX9; [7]): increased expression of SOX9

C[C@@H]1C[C@H]2[C@@H]3CCC4=CC(=O)C=C[C@]4(C)[C@@]3(F)[C@@H](O)C[C@]2(C)[C@@]1(O)C(=O)COP(=O)(O)O [Dxp, dexamethasone phosphate, reference compound]
SOX9 expression (SOX9; [7]): decreased expression of SOX9
SOX9 expression (SOX9; [12]): temporal decrease in expression of SOX9
MMP13 transcription (MMP13; [12]): reduce MMP13 transcription
